Assays:
Assay in all cases: relative viability (nuclei count vs DMSO), 5 days (fraction); higher = more cells survive
17-AAG + Phenformin = compound: C=CCNC1=C2C[C@@H](C)C[C@H](OC)[C@H](O)[C@@H](C)/C=C(\C)[C@H](OC(N)=O)[C@@H](OC)/C=C\C=C(/C)C(=O)NC(=CC1=O)C2=O [17-AAG] + N=C(N)NC(=N)NCCc1ccccc1 [Phenformin] (partner 250 µM)
Procedure, shortened: (§1)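 Lung cancer cell lines in 1536-well plates were dosed by pin tool the day after seeding, either with one drug alone or with a fixed anchor-drug dose plus five library-drug doses (not always all listed) in √10 steps. After 5 days, cells were fixed and their nuclei stained in one step (final 0.05% Triton X-100, 1% formaldehyde, 1 ug/ml Hoechst), then counted on 4× images. Relative viability is the nuclei count in treated wells divided by that in vehicle wells. Values are medians of duplicate plates.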

17-AAG + Lapatinib = compound: C=CCNC1=C2C[C@@H](C)C[C@H](OC)[C@H](O)[C@@H](C)/C=C(\C)[C@H](OC(N)=O)[C@@H](OC)/C=C\C=C(/C)C(=O)NC(=CC1=O)C2=O [17-AAG] + CS(=O)(=O)CCNCc1ccc(-c2ccc3ncnc(Nc4ccc(OCc5cccc(F)c5)c(Cl)c4)c3c2)o1 [Lapatinib] (partner 2 µM)
Procedure, shortened: as §1

17-AAG + Olaparib = compound: C=CCNC1=C2C[C@@H](C)C[C@H](OC)[C@H](O)[C@@H](C)/C=C(\C)[C@H](OC(N)=O)[C@@H](OC)/C=C\C=C(/C)C(=O)NC(=CC1=O)C2=O [17-AAG] + O=C(c1cc(Cc2n[nH]c(=O)c3ccccc23)ccc1F)N1CCN(C(=O)C2CC2)CC1 [Olaparib] (partner 8 µM)
Procedure, shortened: as §1

17-AAG + Trametinib = compound: C=CCNC1=C2C[C@@H](C)C[C@H](OC)[C@H](O)[C@@H](C)/C=C(\C)[C@H](OC(N)=O)[C@@H](OC)/C=C\C=C(/C)C(=O)NC(=CC1=O)C2=O [17-AAG] + CC(=O)Nc1cccc(-n2c(=O)n(C3CC3)c(=O)c3c(Nc4ccc(I)cc4F)n(C)c(=O)c(C)c32)c1 [Trametinib] (partner 0.02 µM)
Procedure, shortened: as §1

| Cell Line | relative viability (17-AAG + Phenformin; first compound 0.00128 µM) | relative viability (17-AAG + Phenformin; first compound 0.004048 µM) | relative viability (17-AAG + Phenformin; first compound 0.0128 µM) | relative viability (17-AAG + Phenformin; first compound 0.04048 µM) | relative viability (17-AAG + Phenformin; first compound 0.128 µM) | relative viability (17-AAG + Lapatinib; first compound 0.00128 µM) | relative viability (17-AAG + Lapatinib; first compound 0.004048 µM) | relative viability (17-AAG + Lapatinib; first compound 0.0128 µM) | relative viability (17-AAG + Lapatinib; first compound 0.04048 µM) | relative viability (17-AAG + Lapatinib; first compound 0.128 µM) | relative viability (17-AAG + Olaparib; first compound 0.00128 µM) | relative viability (17-AAG + Olaparib; first compound 0.004048 µM) | relative viability (17-AAG + Olaparib; first compound 0.0128 µM) | relative viability (17-AAG + Olaparib; first compound 0.04048 µM) | relative viability (17-AAG + Olaparib; first compound 0.128 µM) | relative viability (17-AAG + Trametinib; first compound 0.00128 µM) | relative viability (17-AAG + Trametinib; first compound 0.004048 µM) | relative viability (17-AAG + Trametinib; first compound 0.0128 µM) | relative viability (17-AAG + Trametinib; first compound 0.04048 µM) | relative viability (17-AAG + Trametinib; first compound 0.128 µM) |
| --- | --- | --- | --- | --- | --- | --- | --- | --- | --- | --- | --- | --- | --- | --- | --- | --- | --- | --- | --- | --- |
| NCI-H23 | 0.665 | 0.769 | 0.575 | 0.319 | 0.155 | 0.933 | 0.882 | 0.233 | 0.204 | 0.131 | 0.364 | 0.296 | 0.155 | 0.109 | 0.107 | 0.336 | 0.344 | 0.246 | 0.148 | 0.116 |
| NCI-H596 | 0.829 | 0.68 | 0.554 | 0.781 | 0.309 | 1.19 | 1.06 | 1.17 | 0.996 | 0.818 | 0.784 | 0.739 | 0.674 | 0.48 | 0.371 | 0.841 | 0.852 | 0.767 | 0.704 | 0.308 |
| CAL-12T | 0.56 | 0.498 | 0.563 | 0.447 | 0.15 | 0.645 | 0.598 | 0.611 | 0.527 | 0.334 | 0.754 | 0.697 | 0.725 | 0.371 | 0.211 | 0.394 | 0.352 | 0.319 | 0.308 | 0.146 |
| EPLC-272H | 0.32 | 0.327 | 0.202 | 0.095 | 0.0918 | 1.04 | 1.02 | 0.929 | 0.425 | 0.153 | 0.721 | 0.662 | 0.195 | 0.0777 | 0.0732 | 0.278 | 0.268 | 0.229 | 0.169 | 0.135 |
| NCI-H3122 | 0.396 | 0.329 | 0.129 | 0.118 | 0.117 | 1 | 0.931 | 0.542 | 0.293 | 0.218 | 0.598 | 0.61 | 0.538 | 0.288 | 0.124 | 0.23 | 0.283 | 0.173 | 0.177 | 0.106 |
| HCC-15 | 0.433 | 0.33 | 0.146 | 0.124 | 0.107 | 0.795 | 0.625 | 0.351 | 0.225 | 0.106 | 0.726 | 0.71 | 0.306 | 0.332 | 0.15 | 0.415 | 0.416 | 0.286 | 0.214 | 0.13 |
| RERF-LC-KJ | 0.535 | 0.489 | 0.321 | 0.268 | 0.27 | 0.957 | 0.901 | 1.04 | 0.508 | 0.297 | 0.954 | 0.648 | 0.291 | 0.249 | 0.216 | 0.837 | 0.864 | 0.737 | 0.404 | 0.244 |
